Data reported in patent EP1733758A1, “Methods for administration of a farnesyl dibenzodiazepinone” (Ecopia Biosciences Inc., priority 2005, dated 2006).
pIC50: −log10 of the molar value. Read-outs that look alike come from different tables or passages of the source.

How the values were obtained:
[1] = Allometric extrapolation of population pharmacokinetic parameters to humans; settings: for half-life: human; for half-life / clearance / Vd: plasma, intravenous; for Vd: read-out: Vss
Experimental: (§1) An analysis was performed to derive allometric equations for Formula I pharmacokinetic parameters using Formula I plasma concentration-time data from three species, including mouse, rat, and monkey, and to estimate human pharmacokinetic parameters from those allometric equations.
(§2) Plasma concentrations of Formula I were obtained from mice, rats, and monkeys following intravenous injection or continuous infusion. Formula I pharmacokinetic parameters in mice, rats, and monkeys were estimated using population pharmacokinetic analysis, a function of the software program NONMEM™ (version 5). Typical population pharmacokinetic parameters for Formula I in humans were extrapolated from allometric equations that were derived from pharmacokinetic parameters estimated in the three animal species.
Allometric equations for the pharmacokinetic parameters clearance (CL), volume of distribution (V1 and V2), and inter-compartmental clearance (Q) were derived. The population PK parameters of the compound of Formula I for humans were extrapolated from the allometric equations, and the estimated values are shown in Table 6. Simulated Formula I plasma concentration-time profiles in humans are shown in Figure 13 and estimated end of infusion concentrations are provided in Table 7.

[2] = test system: P388 murine leukemia cells; experiment: Murine P388 leukemia survival model; format: in vivo
Experimental: Formulation: The compound of Formula I is first dissolved in 1 volume of 90% propylene glycol (PG). This is followed by the addition of 2 volumes of 45% polyethylene glycol 400 (PEG 400). The volume ratio of PEG 400/PG/water is respectively 30:30:40. Compound is injected in a volume of 10 mL/kg.
DBA/2 female mice (6 weeks of age) were injected intraperitoneally (IP) with 1 x 10^6 P388 murine leukemia cells (day 0). Mice were randomized in 4 groups (10 mice per group) at Day 1 and treated with the following dose and schedule. Group 1: IV injection of vehicle (PEG/PG formulation) on D1 and D8, daily IP administration of vehicle from D2 to D7 and from D9 to D10 Group 2: IV injection of the compound of Formula I in PEG-PG formulation at 50 mg/kg on D1 followed by daily IP administration of the compound of Formula I in PEG-PG formulation at 10 mg/kg from D2 to D4 and from D6 to D12 Group 3: Daily IP administration of the compound of Formula I in PEG-PG formulation at 10 mg/kg from D1 to D4 and from D8 to D14
Mice body weights were recorded twice a week. Lethality and behaviour of animals were recorded every day. All vehicle control mice died between D8 to D10 from peritoneal carcinomatosis associated with ascites. Three (3) mice from group 2 died one day after treatment due to formulation toxicity. The remaining seven (7) died between days 8 and 12. Mice from group 3 died between days 8 and 12. The results are expressed as percent of mean survival time of treated animals over the mean survival time of the control group (treated vs control, T/C%) and as increase life span (mean survival time of treated animals minus that of control animals over the mean survival time of the control group; ILS%).

[3] = test system: U-87MG cell line; experiment: In vitro activity in the U-87MG cell line; format: cell-based; settings: Homo sapiens
[4] = Population pharmacokinetic analysis (NONMEM), rat; format: in vivo; settings: Rat (IV+CIV)
Experimental: as §1, §2
(§3) A two-compartment model with a first-order elimination from the central compartment adequately described Formula I plasma concentration-time profiles following intravenous bolus injection (30 mg/kg) in mice and rats, 7-day continuous infusion in rats (50 to 170 mg/kg/day), and 14-day continuous infusion in monkeys (5 to 30 mg/kg/day).

[5] = Population pharmacokinetic analysis (NONMEM), monkey; format: in vivo; settings: for clearance: monkey, plasma, intravenous; for clearance / mean steady-state plasma concentration: monkeys, 14-day continuous infusion
Experimental: as §1, §2, §3
Application of a two-compartment model with Michaelis-Menten elimination better described the concentration data in monkeys than the linear model. Because the target concentration in humans is 2 µM, at which linear pharmacokinetics is assumed, all simulations for human plasma concentrations were performed based on a two-compartment model with linear first-order elimination.

[6] = Pharmacokinetics of 14-day continuous intravenous infusion in rats; format: in vivo, Sprague-Dawley rats; settings: for steady-state plasma concentration / Css / T½z: 14-day CIV; for Css: average of plasma concentration between 30h and 14 days; for T½z: calculated at the end of treatment
Experimental: Sprague-Dawley rats received an intravenous continuous infusion over 14 days of Formula I at 25 mg/kg/day, 50 mg/kg/day, or 75 mg/kg/day at a rate of 2 mL/kg/h for 14 consecutive days (same formulation as in Example 7). Blood was collected from the jugular vein in tubes containing K2 EDTA from 3 rats/sex/group at the following time points: 2, 6, and 12 hours after the start of dosing on Day 1, on Day 2 at 6 hours (approximately 30 hours after the start of dosing), on Days 6 and 10 at 6 hours, and on Day 15, 1 hour prior the end of dosing, and then at 5 min, 15 min, 30 min, 1 h, and 2 h after the end of dosing.

[7] = Human, WT 70 Kg, estimated from allometric equations
[8] = Human, estimated from allometric equations derived from mouse, rat and monkey
[9] = Grp 2: IV 50 mg/kg (D1), IP 10 mg/kg (D2-4 & D6-12)
[10] = Grp 3: IP 10 mg/kg (D1-4 & D8-14)
[11] = typical population PK parameter
[12] = Monkey (CIV), typical population PK parameter
[13] = 5 mg/kg/day (Example 9 analysis)
[14] = 15 mg/kg/day (Example 9 analysis)
[15] = 30 mg/kg/day (Example 9 analysis)

Compound: CC(C)=CCC/C(C)=C/CC/C(C)=C/CN1C(=O)c2cccc(O)c2Nc2c(O)cc(O)cc21 [Formula I, 10-farnesyl-4,6,8-trihydroxy-dibenzodiazepin-11-one]
- Q [1, 7]: 2.27 L/h
- V1 [1, 7]: 13.9 L
- V2 [1, 7]: 39.2 L
- Ke [1, 8]: 1.192 h⁻¹
- Q [1, 8]: 0.032 L/h/kg
- V1 [1, 8]: 0.198 L/kg
- V2 [1, 8]: 0.559 L/kg
- half-life ([1]; estimated from allometric equations derived from mouse, rat and monkey, read-out: t1/2,α (converted)): 0.509 h
- half-life ([1]; estimated from allometric equations derived from mouse, rat and monkey, read-out: t1/2,β (converted)): 13.8 h
- clearance [1, 7]: 275 mL/min
- Vd [1, 7]: 53.1 L
- clearance [1, 8]: 0.236 L/h/kg
- Vd [1, 8]: 0.757 L/kg
- % ILS [2, 9]: 33%
- %T/C [2, 9]: 133.3%
- Mean Survival Days ± SD [2, 9]: 11 ± 1.5 days
- Median survival [2, 9]: 12
- % ILS [2, 10]: 38.9%
- %T/C [2, 10]: 138.9%
- Mean Survival Days ± SD [2, 10]: 12.6 ± 4.9 days
- Median survival [2, 10]: 12.5
- mice died one day after treatment due to formulation toxicity ([2]; group 2 (10 mice), IV 50 mg/kg in PEG-PG formulation on D1): 3 mice
- pIC50 [3]: 4.96
- Q ([4]; WT 0.225 Kg): 0.016 L/h
- V1 ([4]; WT 0.225 Kg): 0.028 L
- V2 ([4]; WT 0.225 Kg): 0.053 L
- Ke [4, 11]: 8.651 h⁻¹
- Q [4, 11]: 0.0696 L/h/kg
- V1 [4, 11]: 0.126 L/kg
- V2 [4, 11]: 0.236 L/kg
- Q ([5]; Monkey (CIV), WT 3.8 Kg): 0.151 L/h
- V1 ([5]; Monkey (CIV), WT 3.8 Kg): 0.771 L
- V2 ([5]; Monkey (CIV), WT 3.8 Kg): 1.59 L
- Ke [5, 12]: 2.172 h⁻¹
- Q [5, 12]: 0.0398 L/h/kg
- V1 [5, 12]: 0.203 L/kg
- V2 [5, 12]: 0.419 L/kg
- clearance [5, 13]: 0.63 L/h/kg
- clearance [5, 14]: 0.57 L/h/kg
- clearance [5, 15]: 0.23 L/h/kg
- mean steady-state plasma concentration [5, 13]: 0.75 µM
- mean steady-state plasma concentration [5, 14]: 2.57 µM
- mean steady-state plasma concentration [5, 15]: 14.07 µM
- steady-state plasma concentrations ([6]; 14-day CIV at doses of 50 and 75 mg/kg/day, above therapeutic threshold): > 2 µM
- steady-state plasma concentration ([6]; 25 mg/kg/day): ~0.8 µM
- Css ([6]; 25 mg/kg/day): 347 ng/mL
- T½z ([6]; 25 mg/kg/day): 1.6 h
- steady-state plasma concentration ([6]; 50 mg/kg/day): ~2.5 µM
- Css ([6]; 50 mg/kg/day): 1,150 ng/mL
- T½z ([6]; 50 mg/kg/day): 1.2 h
- steady-state plasma concentration ([6]; 75 mg/kg/day): ~3.9 µM
- Css ([6]; 75 mg/kg/day): 1,796 ng/mL
- T½z ([6]; 75 mg/kg/day): 1.2 h
- plasma concentration ([6]; CIV 50 mg/kg/day, Day 10 (unusually high)): 1,753 ng/mL
